Test results as given in patent publication US10800752B2, “Substituted naphtho[2,3-b]furans as water-soluble prodrugs for preventing and/or treating cancer” (BOSTON BIOMEDICAL, INC., priority 2015, dated 2020).

Legend:
[1] = Evaluation of a conversion rate to 2-acetylnaphtho[2,3-b]furan-4,9-dione in pH 7.4 phosphate buffer solution; type: physicochemical; conditions: Phosphate buffer solution (pH 7.4), 1 umol/L, 37° C., incubation time 120 min
Outline: (§1)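 Compounds at 1 umol/L were incubated at 37° C in human plasma, CD1 mouse plasma or pH 7.4 phosphate buffer, sampled up to 120 minutes, acid/acetonitrile-deproteinised and analysed by LC-MS (ESI positive). Conversion (%) derived from the peak area ratio of the active form to phenytoin internal standard.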

[2] = Pharmacokinetics test, intravenous administration; conditions: for Plasma Compound Concentration: Activated form 1 in plasma, 10.5 mg/kg (i.v.)
Solubility test = conditions: 50 mmol/L glycine buffer solution (pH 2.0), room temperature, 24 hours shaking
Solution stability test = type: physicochemical; conditions: for % Residual ratio: 25 umol/L
Method: For Example 6, Example 11, and Example 22, the stability in each pH was measured. Test compounds at a concentration of 25 umol/L in respective buffer solutions prepared at pH 2.0, 3.0, 5.0, 7.4, and 9.0 were allowed to stand at 25° C. After 0, 3, 6, 9, 12, and 24 hours, they were measured with HPLC.
The buffer solutions used at respective pHs are as described below. pH 2.0: 50 mmol/L glycine buffer solution pH 3.0: 50 mmol/L citrate buffer solution pH 5.0: 50 mmol/L citrate buffer solution pH 7.4: 50 mmol/L phosphate buffer solution pH 9.0: 50 mmol/L glycine buffer solution
The measurement condition of HPLC is as described below.
Column temperature: 40° C.
Mobile phase: A: 0.1% trifluoroacetic acid-containing water

[3] = Evaluation of a conversion rate to 2-acetylnaphtho[2,3-b]furan-4,9-dione in CD1 mouse plasma; type: in vitro ADME; conditions: CD1 mouse plasma, 1 umol/L, 37° C., incubation time 120 min
Outline: as §1

[4] = Evaluation of a conversion rate to 2-acetylnaphtho[2,3-b]furan-4,9-dione in human plasma; type: in vitro ADME; conditions: Human plasma, 1 umol/L, 37° C., incubation time 120 min
Outline: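 Compounds at 1 umol/L incubated at 37° C in human plasma, CD1 mouse plasma or pH 7.4 phosphate buffer, sampled up to 120 minutes. After acidified acetonitrile protein removal, parent loss and conversion to 2-acetylnaphtho[2,3-b]furan-4,9-dione measured by LC-MS (ESI positive).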

For `COC(=O)[C@@H](N)CCNC(=O)Oc1c2ccccc2c(OC(=O)NCC[C@H](N)C(=O)OC)c2oc(C(C)=O)cc12.Cl.Cl` [Example 11], the “% Measurement value (conversion rate to 2-acetylnaphtho[2,3-b]furan-4,9-dione)” value (“% Measurement value” for short) [1] was 58%, the “Plasma Compound Concentration” value ([2]; 0.083 hr, animal 1) was 3740 nM and the “Plasma Compound Concentration” value ([2]; 0.083 hr, animal 2) was 4410 nM. The “Plasma Compound Concentration” value ([2]; 0.083 hr, animal 3) was 5290 nM, the “Plasma Compound Concentration” value ([2]; 0.083 hr, mean) was 4480 nM and the “Plasma Compound Concentration” value ([2]; 0.5 hr, animal 1) was 690 nM. The “Plasma Compound Concentration” value ([2]; 0.5 hr, animal 2) was 1170 nM, the “Plasma Compound Concentration” value ([2]; 0.5 hr, animal 3) was 1390 nM and the “Plasma Compound Concentration” value ([2]; 0.5 hr, mean) was 1080 nM. For the same molecule, the “Plasma Compound Concentration” value ([2]; 1.0 hr, animal 1) was 420 nM, the “Plasma Compound Concentration” value ([2]; 1.0 hr, animal 2) was 620 nM and the “Plasma Compound Concentration” value ([2]; 1.0 hr, animal 3) was 630 nM. For the same molecule, the “Plasma Compound Concentration” value ([2]; 1.0 hr, mean) was 560 nM, the “Plasma Compound Concentration” value ([2]; 2.0 hr, animal 1) was 360 nM and the “Plasma Compound Concentration” value ([2]; 2.0 hr, animal 2) was 280 nM. The “Plasma Compound Concentration” value ([2]; 2.0 hr, animal 3) was 80 nM, the “Plasma Compound Concentration” value ([2]; 2.0 hr, mean) was 240 nM and the “production of 2-acetylnaphtho[2,3-b]furan-4,9-dione (Activated form 1) (in words)” value ([2]; intravenously administered to mice) was “rapidly produced”. For the same molecule, the “Solubility in pH 2.0 buffer solution” value (Solubility test) was over 5.0 mg/mL, the “stability in solution (in words)” value (Solution stability test; pH 2.0, 25° C.) was “very stable” and the “% Residual ratio” value (Solution stability test; pH 2.0, 25° C., 0 hr) was 100%. The “% Residual ratio” value (Solution stability test; pH 2.0, 25° C., 3 hr) was 100%, the “% Residual ratio” value (Solution stability test; pH 2.0, 25° C., 6 hr) was 102% and the “% Residual ratio” value (Solution stability test; pH 2.0, 25° C., 9 hr) was 102%. The “% Residual ratio” value (Solution stability test; pH 2.0, 25° C., 12 hr) was 104%, the “% Residual ratio” value (Solution stability test; pH 2.0, 25° C., 24 hr) was 102% and the “stability in solution (in words)” value (Solution stability test; pH 3.0, 25° C.) was “sufficient stability”. The “% Residual ratio” value (Solution stability test; pH 3.0, 25° C., 0 hr) was 100%, the “% Residual ratio” value (Solution stability test; pH 3.0, 25° C., 3 hr) was 98.6% and the “% Residual ratio” value (Solution stability test; pH 3.0, 25° C., 6 hr) was 97.3%. For the same molecule, the “% Residual ratio” value (Solution stability test; pH 3.0, 25° C., 9 hr) was 98.8%, the “% Residual ratio” value (Solution stability test; pH 3.0, 25° C., 12 hr) was 94.5% and the “% Residual ratio” value (Solution stability test; pH 3.0, 25° C., 24 hr) was 90.7%. For the same molecule, the “% Residual ratio” value (Solution stability test; pH 5.0, 25° C., 0 hr) was 100%, the “% Residual ratio” value (Solution stability test; pH 5.0, 25° C., 3 hr) was 36.0% and the “% Residual ratio” value (Solution stability test; pH 5.0, 25° C., 6 hr) was 14.0%. The “% Residual ratio” value (Solution stability test; pH 5.0, 25° C., 9 hr) was 5.2%, the “% Residual ratio” value (Solution stability test; pH 5.0, 25° C., 12 hr) was 0% and the “% Residual ratio” value (Solution stability test; pH 5.0, 25° C., 24 hr) was 0%. For the same molecule, the “% Residual ratio” value (Solution stability test; pH 7.4, 25° C., 0 hr) was 100%, the “% Residual ratio” value (Solution stability test; pH 7.4, 25° C., 3 hr) was 0% and the “% Residual ratio” value (Solution stability test; pH 7.4, 25° C., 6 hr) was 0%. The “% Residual ratio” value (Solution stability test; pH 7.4, 25° C., 9 hr) was 0%, the “% Residual ratio” value (Solution stability test; pH 7.4, 25° C., 12 hr) was 0% and the “% Residual ratio” value (Solution stability test; pH 7.4, 25° C., 24 hr) was 0%. The “% Residual ratio” value (Solution stability test; pH 9.0, 25° C., 0 hr) was 100%, the “% Residual ratio” value (Solution stability test; pH 9.0, 25° C., 3 hr) was 0% and the “% Residual ratio” value (Solution stability test; pH 9.0, 25° C., 6 hr) was 0%. The “% Residual ratio” value (Solution stability test; pH 9.0, 25° C., 9 hr) was 0%, the “% Residual ratio” value (Solution stability test; pH 9.0, 25° C., 12 hr) was 0% and the “% Residual ratio” value (Solution stability test; pH 9.0, 25° C., 24 hr) was 0%. The “% Measurement value” value [3] was 100% and the “% Measurement value” value [4] was 100%.
